Results on 3 compounds are retold here after patent publication US12685754B2, “Method of fixating and stabilizing nitric oxide metabolites through fermentation of nitrogen-containing natural substance” (priority 2019, dated 2026).

“Also recorded” adds a separate entry of the source.

Data set [1] has as its system test animal of diabetes (STZ). The experiment in a line: Blood markers of diabetes and diabetes complications after 4 weeks of administration (Example 9-4). It is filed as in vivo, C57BL/6 mouse. The following applies: 4 weeks once a day, NaNO2 oral, test sample rectal. On the procedure:
(§1) As a test animal, 4-week-old male C57BL/6 mouse was obtained from Samtako (South Korea) and used. The test animals were acclimated for 1 week under the same breeding chamber condition as Example 5 above. The acclimated C57BL/6 mouse was then intraperitoneally injected once with STZ (streptozotocin; Sigma-Aldrich, USA) solution, which has been prepared at concentration of 120 mg/kg in 0.1 M citrate buffer (pH 4.5), to induce diabetes. Two weeks after administering STZ, the mouse was fasted for 16 hours and blood was taken from tail vein of the test animal to measure fasting blood glucose using a simple blood glucose meter (Glucotrend, Roche, Germany). […] Body weight, feed intake amount, and blood glucose level were measured twice a week. After one week, blood glucose level was measured again and test animals which maintained fasting blood glucose of not less than 200 mg/dL were selected and used for the test.
(§2) In this example, fermented liquid obtained by fermenting Korean garlic was used for the test after concentration. Content of the nitric oxide metabolites in garlic fermentation concentrate which has been obtained after concentration was adjusted such that it is 200 ppm or higher in terms of NO2^−. It is preferable that the concentration step is carried out for 24 hours to 48 hours at temperature of 20° C. to 30° C. and stirring speed of 100 rpm to 300 rpm.
To the test animal of diabetes prepared in Example 6, NaNO2 was administered orally once a day for 4 weeks or the test sample (garlic fermentation concentrate obtained by concentration) was administered rectally also once a day for 4 weeks. On the last day of test, blood was collected from all test animals to complete the test. After that, content of blood glucose, glycated hemoglobin, insulin, creatinine, and urea nitrogen in the collected blood were measured by using a diagnostic kit. Specifically, the blood glucose, glycated hemoglobin, and insulin of Table 3 were used for determining and analyzing the anti-diabetes effect, while creatinine and urea nitrogen of Table 3 were used for determining and analyzing the effect of alleviating the symptoms of diabetes complications. A decrease in kidney function is one of the diabetes complications, and creatinine and urea nitrogen are a clinical biomarker for measuring the kidney function.

The conditions of data set [2]: samples collected after measurement at acidic or reduction condition. As for the experimental part:
(§3) As a test material, a fermented substance using garlic, cabbage, onion, bean sprouts, lettuce, soybean, or cricket, and sodium nitrite were used. […] As a result, from all samples other than sodium nitrite (residual nitrite ion concentration of 5 mg/L), nitrite ion was not detected.

In data set [3] the test system is rat injected with DOCA (high blood pressure). Nature of the data set: Blood pressure-lowering effect in test animal of high blood pressure (Example 9-2). The class given is in vivo, Sprague Dawley (SD) rat. The following applies: 15-120 minutes; NaNO2 oral 18.6 mg/kg, test sample rectal 12.5 mg/kg as NO2-; once a day for 4 weeks. On the procedure: The acclimated SD rat (8-week-old) was intraperitoneally injected with DOCA (deoxycorticosterone acetate; […] To determine an occurrence of high blood pressure, blood pressure was measured by using tail-cuff plethysmography (Muromachi Kikai, Japan), and animals with systolic blood pressure of at least 140 mmHg were selected and used for the test. When various plants rich in polyphenol are used, it is possible to obtain fermentation liquid containing both nitric oxide metabolites and polyphenol. In this example, fermented liquid obtained by fermenting Korean garlic was used for the test after concentration. Content of the nitric oxide metabolites in garlic fermentation concentrate which has been obtained after concentration was adjusted such that it is 200 ppm or higher in terms of NO2^−. It is preferable that the concentration step is carried out for 24 hours to 48 hours at temperature of 20° C. to 30° C. and stirring speed of 100 rpm to 300 rpm.

The nature of data set [4]: Release of nitric oxide at reducing condition mimicking the intestinal condition of human body. The following applies: vitamin C and sodium chloride in phosphate buffer solution. It is filed as physicochemical. On the procedure:
(§4) To figure the optimum fermentation condition allowing fixating and stabilization of the nitric oxide metabolites at the highest level, production amount of nitric oxide metabolites was examined depending on various fermentation temperatures, dissolved oxygen concentrations (level), and chemical oxygen demands. For measuring the nitric oxide metabolites, amount of nitric oxide was measured under acidic condition and also reducing condition using a chemical method and calculation was made for the nitric oxide metabolites. As for the acidic condition, a condition mimicking human stomach was created using hydrochloride (HCl) solution with sodium chloride (NaCl) and potassium chloride (KCl), and then nitric oxide metabolites were released in the solution. […] Thereafter, by using a nitric oxide detector (Sievers Nitric Oxide Analyzer 280i), amount of the nitric oxide metabolites fixated in fermented substance was measured.
as §3

A short description of data set [5]: Release of nitric oxide at acidic condition like artificial stomach. The class given is physicochemical. The settings on record: HCl solution with NaCl and KCl; Sievers Nitric Oxide Analyzer 280i. As for the experimental part:
as §4, §3

The test system of data set [6] is mouse injected with STZ (diabetes). The experiment in a line: Oral glucose tolerance test for test animal of diabetes (Example 9-3). The class given is in vivo, C57BL/6 mouse. The following applies: glucose 2 g/kg; 15-120 minutes; NaNO2 oral 18.6 mg/kg, test sample rectal 12.5 mg/kg; once a day for 4 weeks. On the procedure: as §1, §2
In data set [7] the test system is mouse with DNFB-induced atopic dermatitis. Nature of the data set: DNFB-induced atopic dermatitis mouse: visual examination, ear swelling, histopathology. The class given is in vivo, Balb/c mouse. The settings on record: histopathological test, H&E, last day of test; control DNFB + DW 843.17 ± 55.22. On the procedure:
As a test animal, 5-week old male Balb/c mouse was obtained from Samtako (South Korea) and, after acclimatization for 1 week, used for the test. The breeding chamber for test animal has controlled light and darkness cycle with an interval of 12 hours, and temperature was maintained at 23±2° C. and humidity was maintained at 50 to 60%.
Cabbage fermentation extract was used as a test sample of the test, and, specifically, fermented cabbage which has been prepared according to the method of the present invention was frozen at −80° C. and freeze-dried for 5 days (PVTFD10R, Ilshin Lab, Korea). Thus-obtained powder was dissolved in distilled water and used as a test sample. […]
Anti-atopic effect was analyzed based on visual examination, ear swelling, measurement of interferon γ in blood serum, and histopathological examination. […]

As for `O=N[O-].[Na+]` [NaNO2, sodium nitrite], the Creatinine in data set [1] (control group 0.25 ± 0.05) came to 0.18 ± 0.03 mg/dL. In data set [1] (control group 7.5 ± 0.3), this compound came in with a Glycated hemoglobin of 6.2 ± 0.3%. Besides, the Urea nitrogen in data set [1] (control group 43.2 ± 0.8) is listed as 37.1 ± 0.5 mg/dL. The compound also registered an Insulin in data set [1] (control group 80.0 ± 10.7) of 150.0 ± 9.5 ng/mL. Also, the Fasting blood glucose in data set [1] (control group 480.0 ± 6.0, normal 106.0 ± 5.0) came to 320.0 ± 11.0 mg/dL. Further, in data set [2], the “residual nitrite ion concentration” value is listed as 5 mg/L. Besides, in data set [3], the “change in blood pressure over time” value is reported as “rapid decrease in blood pressure; also recorded: after the sharp decrease in initial blood pressure, the blood pressure has dramatically increased again”. Further, in data set [4], the “release amount of nitric oxide at reducing condition mimicking the intestinal condition of human body” value was determined as 488.4 mg/L. In addition, the “release amount of nitric oxide at acidic condition like artificial stomach” value in data set [5] amounted to 130.7 mg/L. Also, the “blood glucose level in OGTT” value in data set [6] is “rapid decrease in blood glucose level; also recorded: no further decrease in the blood glucose level”.

Regarding nitrite [DNFB + N], the Ear thickness in data set [7] came out at 463.67 ± 77.08 μm.

For the compound citrate [DNFB + CA], the Ear thickness in data set [7] was 593.17 ± 71.27 μm.
